Data reported in article PMC6397244, “Peptide Assembly on the Membrane Determines the HIV-1 Inhibitory Activity of Dual-Targeting Fusion Inhibitor Peptides” (Scientific Reports, 2019).
Ends that are not written are not given here.

How the values were obtained:
[1] = Trp quenching by brominated phospholipids; format: physicochemical; settings: 2 µM peptide, 200 µM Br-PC vs DOPC vesicles, 5 min, 25 °C, excitation 290 nm; three repeated assays
Procedure: Quenching of Trp by brominated phospholipid was performed using liposomes composed of 1,2-di-(9-10-dibromo) stearoyl-sn-glycero-3-phosphocoline (Br-PC) (Avanti Polar Lipids). As previously reported, this lipid has similar properties as unsaturated phosphatidylcholine chains due to the bulkiness of bromine residues. For this reason, liposomes of 1,2-dioleoyl-sn-glycero-3-phosphocholine (DOPC) were used for comparing the Trp fluorescence of peptides with brominated liposomes. Liposomes were prepared following the same procedure as described above. Comparatively, a concentration of 2 µM of peptides was added to 200 µM of lipid vesicles either BrPC or DOPC. After 5 min of incubation at 25 °C, fluorescence spectra were recorded with an excitation wavelength of 290 nm and emission from 300 to 450 nm. The fractional quenching was calculated as reported in ref. [33] by (F0 − F)/F0, where F0 is the fluorescence intensity at 340 nm for peptides added to DOPC liposomes and F for peptides added to Br-PC liposomes.

[2] = membrane affinity / partition, intrinsic Trp fluorescence on titration with POPC liposomes; format: physicochemical; settings: 5 µM peptide, POPC LUVs 0.05–0.6 mM, 20 °C; for apparent mole fraction partition coefficient KX: intrinsic Trp fluorescence (ex 280 nm), PBS 0.01 M pH 7.4 (method) / HEPES, triplicate
Procedure: Unilamellar vesicles (LUV) composed of the negatively charged phospholipid 1-palmitoyl-2-oleoyl-sn-glycero-3-phospho-(1′-rac-glycerol) (POPG) or zwitteronic phospholipid palmitoyl-2-oleoyl-sn-glycero-3-phosphocholine (POPC) (both from Avanti Polar-Lipids) were prepared as model membranes. Lipids (10 mM) were dissolved in chloroform/methanol (2/1, v/v) solution. The solvent was evaporated under reduced pressure. A buffer solution of PBS 0.01 M pH 7.4 was added to the previously obtained lipid film to prompt the spontaneous formation of multilamellar vesicles that were subjected to a process of 10 freeze and thaw cycles. The liposomes were then subjected to an extrusion process through 100-nm pore-sized polycarbonate filters in a high-pressure extruder.
To carry out membrane partition studies with DT-peptides, emission fluorescence spectra were recorded for DT-peptides in PBS (0.01 M, pH 7.4) at 20 °C using an excitation wavelength of 280 nm. Changes in the tryptophan (Trp) fluorescence spectra were monitored after incubation of 5 µM of each peptide with increasing concentrations of liposomes. The suspensions were continuously stirred and were left to equilibrate for 10 min before recording the spectra. Fluorescence intensities were corrected by subtraction of the vesicle blank. A lipid titration of N-acetyltryptophanamide (NATA) was carried out at the same time. As described in ref. [31], the apparent mole fraction partition coefficients were determined by fitting the binding curves to the equation: F=fboundFmax+(1−fbound)F0 where F is the relative fluorescence intensity, F0 is the fluorescence intensity in the absence of lipid. fbound=KxL/(W+KxL) where Kx is the mole fraction partition coefficient, L is the lipid concentration, and W is the molar concentration of water (55.3 M at 25 °C).

HIV-1 FP = settings: donor:acceptor 1:1 ratio; cited from earlier work
Description: The energy transfer efficiency between FP and E1 peptide at a donor:acceptor 1:1 ratio, was around 30% while the energy transfer efficiency between FP and DT-P2 was only 5%.

[3] = test system: CAP210 (HIV pseudotype, Env pCAP210.2); settings: CAP210 (R5, subtype C); TZM-bl, peptide 1 h before and during infection, luciferase read-out 48 h after infection; duplicates
Description: (§1) The anti-HIV activities of DT-peptides and E1 were comparatively tested against a set of viral pseudotypes carrying HIV envelopes from HIV subtype A, B, C and A/E (Table 1) in the TZM-bl reporter cell line.
(§2) The preparation of the HIV-1 Env pseudotyped virus stocks in a GCLP- (Good Clinical Laboratory Practice) compliant manner occurred as described previously. This includes the pseudoviruses listed in Table 2 with the Env sequences HXB2, AC10.0.29, Q461.e2, Q23.17, CAP210.2.00.E8 and CM235.c11 as well as the Env deficient backbone plasmid pSG3ΔEnv. Within this study the titration assay to determine the virus dilution at a relative luminescence unit (RLU) of 150,000 was performed according to the method described before[34]–[36] and the luminescence was measured using the Infinite F200 microplate reader.
(§3) Peptides were tested for their antiviral activities against a panel of HIV pseudotypes carrying different HIV envelope proteins (Table 2) in the TZM-bl indicator cell line. Briefly, 10-fold serial dilutions of the compounds (0.001–10 µM) were incubated in duplicates with the cells in 96-well plates. 1 h after incubation, cell culture medium was replaced and cells were infected with the different pseudotypes together with fresh compounds. […] 48 h after infection, cells were washed and luciferase was quantified using the Britelite Plus Luciferase Assay System (PerkinElmer). Luciferase values were normalized to DMSO control. Cell viability was estimated in parallel in non-infected TZM-bl cells with the Cell Titer Glo ATPase kit (Promega). CC50 and EC50 values ± SEM were calculated with GraphPad Prism, using the built-in function log (inhibitor) vs. normalized response.

[4] = test system: Q461 (HIV pseudotype, Env pQ461.e2); settings: Q461 (R5, subtype A); TZM-bl, peptide 1 h before and during infection, luciferase read-out 48 h after infection; duplicates
Description: as §1, §2, §3

[5] = test system: HXB2 (HIV pseudotype, Env pHXB2); settings: HXB2 (X4, subtype B); TZM-bl, peptide 1 h before and during infection, luciferase read-out 48 h after infection; duplicates
Description: as §1, §2, §3

[6] = test system: AC10 (HIV pseudotype, Env pAC10.0); settings: AC10 (R5, subtype B); TZM-bl, peptide 1 h before and during infection, luciferase read-out 48 h after infection; duplicates
Description: as §1, §2, §3

[7] = test system: Q23 (HIV pseudotype, Env pQ23.17); settings: Q23 (R5, subtype A); TZM-bl, peptide 1 h before and during infection, luciferase read-out 48 h after infection; duplicates
Description: as §1, §2, §3

[8] = test system: CM235 (HIV pseudotype, Env pCM235/GS); settings: CM235 (R5, subtype A/E); TZM-bl, peptide 1 h before and during infection, luciferase read-out 48 h after infection; duplicates
Description: as §1, §2, §3

[9] = 1D 1H NMR in DPC micelles; format: physicochemical; settings: NMR sample
Procedure: Nuclear magnetic resonance (NMR) spectra were recorded at 300 K on a Bruker Avance III console (Bruker Biospin, Germany) combined with a […] Oxford Instruments magnet (^1H 500 MHz), equipped with a 5 mm inverse cryogenically cooled triple-resonance TCI (^1H, ^13C, ^15N, and ^2H lock) cryoprobe with a z-axis magnetic field-gradient capability. For proton spectra acquisition, peptide samples were prepared by dissolving first lyophilized peptide in a small amount of DMSO-d6 and next, dissolution in detergent solution containing perdeuterated DPC-d38 (final molar ratio ~ 1:100, peptide/DPC 0.5:50 mM). […] The diffusion coefficient, D, was determined by fitting diffusion weighted intensities of selected peaks or integrals over a chosen range to the following equation1 I=I0exp{−γ^2g^2δ^2(Δ−δ/3)D}, where γ is the gyromagnetic ratio of proton and g, δ and Δ are the amplitude, duration and separation of the single pair of gradient pulses, respectively. […] The reason for DPC diffusion coefficients being higher than peptides values is likely due to a surplus of free monomeric DPC molecules (below cmc), so the diffusion coefficient measured for DPC has a relevant contribution of […], while the observed peptide resonances (and their diffusion coefficient) mainly correspond to DPC-bound peptide.

WILEYLWKVPFDFWRGVI-NH2 (C-terminus assumed) [E1]
Trp quenching by brominated lipid vesicles / accessibility for the lipids (in words) [1]: highly quenched demonstrating greater peptide accessibility to the hydrophobic inner part of the lipid vesicles | Trp fluorescence upon titration with POPC liposomes / membrane partition (in words) ([2]; excitation 280 nm): partitioned stronger into lipid vesicles | apparent mole fraction partition coefficient KX [2]: 8.2 × 10^5 | energy transfer efficiency between FP and peptide (HIV-1 FP): around 30%

WILEYLWKVPFDFWRGVIGGGSLCDCPNGPWVWVPAFCQAVG-NH2 (cysteines drawn unpaired) [DT-P2]
EC50 [3]: 9.4 µM | EC50 [4]: 24.5 µM | EC50 [5]: 10.8 µM | EC50 [6]: 14 µM | EC50 [7]: 15.9 µM | EC50 [8]: 17.9 µM | apparent mole fraction partition coefficient KX [2]: 2.4 × 10^5

LCDCPNGPWVWVPAFCQAVGGGGSWILEYLWKVPFDFWRGVI-NH2 (cysteines drawn unpaired) [DT-P1]
EC50 [3]: 12.9 µM | EC50 [4]: 24.5 µM | EC50 [5]: 7.63 µM | EC50 [6]: 20.2 µM | EC50 [7]: 21.6 µM | EC50 [8]: 18.9 µM | effect of higher DMSO-d6 (from 3 to 13%) to increase solubility [9]: no improvement was observed
